This assay has as its system GRP78 and UPR pathway proteins in breast cancer cell lines. The experiment in a line: Immunoblot analysis of energy and UPR pathway proteins. It counts as cell-based, human. Conditions: tunicamycin 5 μg/ml, thapsigargin 1 μM; all four breast cancer cell lines. How it is done: Cells were treated with thiaminase or anti-cancer agent for the indicated times and washed with ice-cold PBS. Cells were lysed with a triple-detergent lysis buffer (50 mM Tris pH8.0, 150 mM NaCl, 1% NP-40, 0.5% DOC, 0.1% SDS, 0.02% sodium azide and protease inhibitors). Equal amounts of protein were loaded into each well and separated by 10% SDS-PAGE gel, followed by transfer onto nitrocellulose membranes. The membranes were blocked, incubated with the indicated primary antibodies at 4° C. overnight, and the appropriate horseradish peroxidase-conjugated secondary antibody was added for 1 hour at room temperature. Immunoblots were developed by use of the enhanced chemiluminescence (ECL) detection system (Pierce, Rockford, Ill.) according to the manufacturer's protocol and autoradiography. All of the primary antibodies were purchased from Cell Signaling Technologies (Danvers, MA). The secondary antibodies were purchased from Sigma (St. Louis, Mo.). An anti-β-actin antibody was used as a control for protein loading.

As to `C/C=C(/C)C(=O)O[C@H]1C(C)=C2[C@H]([C@@H]1OC(=O)CCCCCCC)[C@@](C)(OC(C)=O)C[C@H](OC(=O)CCC)[C@@]1(O)[C@H]2OC(=O)[C@@]1(C)O` [thapsigargin], the GRP78 induction result is listed as “marked induction”.
Next, tunicamycin: “marked induction”.

Source of the values: US8663632B1, “Compositions and methods for selectively targeting cancer cells using a thiaminase compound” (University of Kentucky Research Foundation, priority 2008, dated 2014).
